We go through 18 compounds from patent publication US12030883B2, “Hetero-tricyclic compounds as inhibitors of KRAS” (Incyte Corporation, priority 2021, dated 2024).

For one assay, the target named is KRAS G12V (Homo sapiens, UniProt P01116, G12V). The assay is described as follows: GDP-GTP exchange assay, KRAS G12V (bodipy-GDP/GppNHp, SOS1). It is filed as biochemical. To be noted: bodipy-loaded KRAS G12V 2.5 nM, 3 hours pre-incubation with inhibitor, SOS1 150 nM, GppNHp 500 uM; read-out: G12V_exchange (KRAS_G12V exchange assay IC50). As for the experimental part:
(§1) The inhibitor potency of the exemplified compounds was determined in a fluorescence based guanine nucleotide exchange assay, which measures the exchange of bodipy-GDP (fluorescently labeled GDP) for GppNHp (Non-hydrolyzable GTP analog) to generate the active state of KRAS in the presence of SOS1 (guanine nucleotide exchange factor). Inhibitors were serially diluted in DMSO and a volume of 0.1 μL was transferred to the wells of a black low volume 384-well plate. Five μL/well volume of bodipy-loaded KRAS G12D or G12V diluted to a final concentration of 2.5 nM in assay buffer (25 mM Hepes pH 7.5, 50 mM NaCl, 10 mM MgCl2 and 0.01% Brij-35) was added to the plate and pre-incubated with inhibitor for 4 hours (G12D) or 3 hours (G12V) at ambient temperature. A cyclic peptide described to selectively bind G12D mutant (Sakamoto et al., BBRC 484.3 (2017), 605-611) or internal compounds with confirmed binding were used as positive controls in the assay plates. The exchange was initiated by the addition of a 5 μL/well volume containing 1 mM GppNHp and 300 nM SOS1 in assay buffer. The 10 μL/well reaction concentration of the bodipy-loaded KRAS G12D or G12V, GppNHp, and SOS1 were 2.5 nM, 500 uM, and 150 nM, respectively.
(§2) Either GraphPad prism or XLfit was used to analyze the data. The IC50 values were derived by fitting the data to a four parameter logistic equation producing a sigmoidal dose-response curve with a variable Hill coefficient. Prism equation: Y=Bottom+(Top−Bottom)/(1+10^((LogIC50-X)*Hill slope)); XLfit equation: Y=(A+((B−A)/(1+((X/C)^D)))) where X is the logarithm of inhibitor concentration and Y is the response.

Assay [1] concerns the target T1, KRAS G12D (Homo sapiens, UniProt P01116, G12D). The assay can be described thus: KRAS_G12D pERK assay (cellular pERK HTRF assay). Also on record: host or cells: A427 or HPAF-II. The settings on record: KRAS G12D cells (A427, HPAF-II named in method), 2 hours incubation, Phospho-ERK 1/2 HTRF; read-out: G12D_PERK (KRAS_G12D pERK assay IC50). The format is cell-based. As for the experimental part: MIA PaCa-2 (KRAS G12C; ATCC® CRL-1420), A427 (KRAS G12D; ATCC® HTB53), HPAF-II (KRAS G12D; ATCC® CRL-1997) and NCI-H838 (KRAS WT; ATCC® CRL-5844) cells are purchased from ATCC and maintained in RPMI 1640 media supplemented with 10% FBS (Gibco/Life Technologies). The cells are plated at 5000 cells per well (8 uL) into Greiner 384-well low volume, flat-bottom, tissue culture treated white plates and incubated overnight at 37° C., 5% CO2. The next morning, test compound stock solutions are diluted in media at 3× the final concentration, and 4 uL are added to the cells. The plate is mixed by gentle rotation for 30 seconds (250 rpm) at room temperature. The cells are incubated with the KRAS G12C and G12D compounds for 4 hours or 2 hours respectively at 37° C., 5% CO2.
4 uL of 4× lysis buffer with blocking reagent (1:25) (Cisbio) are added to each well and plates are rotated gently (300 rpm) for 30 minutes at room temperature. 4 uL per well of Cisbio anti Phospho-ERK 1/2 d2 is mixed with anti Phospho-ERK 1/2 Cryptate (1:1) are added to each well, mixed by rotation and incubated overnight in the dark at room temperature. Plates are read on the Pherastar plate reader at 665 nm and 620 nm wavelengths. IC50 determination is performed by fitting the curve of inhibitor percent inhibition versus the log of the inhibitor concentration using the GraphPad Prism 7 software.
In general terms: TR-FRET usually uses a lanthanide donor and a delayed reading to cut background.

Assay [2] deals with T1, KRAS G12D. The assay is described as follows: GDP-GTP exchange assay, KRAS G12D (bodipy-GDP/GppNHp, SOS1). It is filed as biochemical. To be noted: bodipy-loaded KRAS G12D 2.5 nM, 4 hours pre-incubation with inhibitor, SOS1 150 nM, GppNHp 500 uM; read-out: G12D_exchange (KRAS_G12D exchange assay IC50). The procedure: as §1, §2

KRAS G12V, sequence (P01116 1-188 isoform P01116-2 G12V): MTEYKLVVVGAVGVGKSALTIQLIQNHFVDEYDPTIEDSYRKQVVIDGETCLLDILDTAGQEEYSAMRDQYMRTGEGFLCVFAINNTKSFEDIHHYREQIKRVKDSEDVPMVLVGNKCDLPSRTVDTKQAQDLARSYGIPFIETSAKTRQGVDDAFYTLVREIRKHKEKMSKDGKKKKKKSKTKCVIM
T1 sequence (P01116 1-188 isoform P01116-2 G12D): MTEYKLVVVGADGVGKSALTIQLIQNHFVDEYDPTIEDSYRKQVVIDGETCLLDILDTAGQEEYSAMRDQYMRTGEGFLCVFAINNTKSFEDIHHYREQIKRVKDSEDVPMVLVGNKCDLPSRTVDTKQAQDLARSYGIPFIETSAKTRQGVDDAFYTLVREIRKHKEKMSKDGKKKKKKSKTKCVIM

Consider `N#CCCc1cc2c3c(cnc2c(F)c1-c1cc(O)cc2ccccc12)NC(=O)CN3[C@@H]1[C@@H]2CN[C@H]1C2` (racemic) [Example 20a, 3-(1-((endo)-2-Azabicyclo[2.1.1]hexan-5-yl)-7-fluoro-8-(3-hydroxynaphthalen-1-yl)-3-oxo-1,2,3,4-tetrahydropyrazino[2,3-c]quinolin-9-yl)propanenitrile], for which the IC50 (in general, the midpoint of a concentration-inhibition curve) on KRAS G12V is ≤ 100 nM; on KRAS G12D [1], 5000 to 10000 nM; at KRAS G12D [2], ≤ 100 nM.
Consider `C[C@H](Oc1nc2c(F)c(-c3c[nH]c4ccccc34)c(CCC#N)cc2c2c1NC(=O)CN2C1C2CNC1C2)[C@@H]1CCCN1C` (single isomer, unassigned) [Example 1a], for which the half-inhibitory concentration (IC50) on KRAS G12V, at KRAS G12D [1] and on KRAS G12D [2] was ≤ 100 nM throughout.
Consider `C[C@H](Oc1nc2c(F)c(-c3cccc(Cl)c3Cl)c(CCC#N)cc2c2c1NC(=O)CN2C1C2CNC1C2)[C@@H]1CCCN1C` (single isomer, unassigned) [Example 2b], for which the IC50 was ≤ 100 nM at KRAS G12V, 100 to 1000 nM at KRAS G12D [1] and ≤ 100 nM on KRAS G12D [2].
As for `C[C@H](Oc1nc2c(F)c(-c3cccc4ccc(F)cc34)c(CCC#N)cc2c2c1NC(=O)CN2C1C2CNC1C2)[C@@H]1CCCN1C` (single isomer, unassigned) [Example 3a], the IC50 at KRAS G12V, at KRAS G12D [1] and on KRAS G12D [2] was ≤ 100 nM throughout.
For `C[C@H](Oc1nc2c(F)c(-c3cc(O)cc4ccc(F)cc34)c(CCC#N)cc2c2c1NC(=O)CN2C1C2CNC1C2)[C@@H]1CCCN1C` (single isomer, unassigned) [Example 4c], the IC50 at KRAS G12V, on KRAS G12D [1] and at KRAS G12D [2] was ≤ 100 nM each time.
As to `C[C@H](Oc1nc2c(F)c(-c3cc(O)cc4ccc(F)cc34)c(CCC#N)cc2c2c1NC(=O)CN2C1C2CNC1C2)[C@@H]1CCCN1C` (single isomer, unassigned) [Example 4d], the figures for the IC50 on KRAS G12V, at KRAS G12D [1] and at KRAS G12D [2] were 100 to 1000 nM, 1000 to 5000 nM and ≤ 100 nM, respectively.
The corresponding values for `CNC(=O)c1ccc(-c2nc3c(F)c(-c4cc(O)cc5ccccc45)c(CCC#N)cc3c3c2NC(=O)CN3C2C3CNC2C3)cn1` (single isomer, unassigned) [Example 5a, 5-(1-((endo)-2-Azabicyclo[2.1.1]hexan-5-yl)-9-(2-cyanoethyl)-7-fluoro-8-(3-hydroxynaphthalen-1-yl)-3-oxo-1,2,3,4-tetrahydropyrazino[2,3-c]quinolin-5-yl)-N-methylpicolinamide] are ≤ 100 nM, 5000 to 10000 nM and ≤ 100 nM.
The matching figures for `N#CCCc1cc2c3c(c(-c4ccc5cccnc5c4)nc2c(F)c1-c1cc(O)cc2ccccc12)NC(=O)CN3C1C2CNC1C2` (single isomer, unassigned) [Example 6a, 3-(1-((endo)-2-Azabicyclo[2.1.1]hexan-5-yl)-7-fluoro-8-(3-hydroxynaphthalen-1-yl)-3-oxo-5-(quinolin-7-yl)-1,2,3,4-tetrahydropyrazino[2,3-c]quinolin-9-yl)propanenitrile]: ≤ 100 nM, 1000 to 5000 nM and ≤ 100 nM.
For the compound `Cn1cnc(-c2nc3c(F)c(-c4cc(O)cc5ccccc45)c(CCC#N)cc3c3c2NC(=O)CN3C2C3CNC2C3)c1` (single isomer, unassigned) [Example 7a, 3-(1-((endo)-2-Azabicyclo[2.1.1]hexan-5-yl)-7-fluoro-8-(3-hydroxynaphthalen-1-yl)-5-(1-methyl-1H-imidazol-4-yl)-3-oxo-1,2,3,4-tetrahydropyrazino[2,3-c]quinolin-9-yl)propanenitrile], the results for the IC50 at KRAS G12V, on KRAS G12D [1] and at KRAS G12D [2] were ≤ 100 nM, 100 to 1000 nM and ≤ 100 nM, respectively.
With `CNC(=O)c1cccc(-c2nc3c(F)c(-c4cc(O)cc5ccccc45)c(CCC#N)cc3c3c2NC(=O)CN3C2C3CNC2C3)c1` (single isomer, unassigned) [Example 9a, 3-(1-((endo)-2-Azabicyclo[2.1.1]hexan-5-yl)-9-(2-cyanoethyl)-7-fluoro-8-(3-hydroxynaphthalen-1-yl)-3-oxo-1,2,3,4-tetrahydropyrazino[2,3-c]quinolin-5-yl)-N-methylbenzamide], the IC50 on KRAS G12V was ≤ 100 nM; at KRAS G12D [1], 1000 to 5000 nM; on KRAS G12D [2], ≤ 100 nM.
As to `N#CCCc1cc2c3c(c(OC[C@@]45CCCN4C[C@H](F)C5)nc2c(F)c1-c1cc(O)cc2ccccc12)NC(=O)CN3C1C2CNC1C2` (single isomer, unassigned) [Example 10a], the IC50 at KRAS G12V is ≤ 100 nM; on KRAS G12D [1] it was 1000 to 5000 nM; on KRAS G12D [2], ≤ 100 nM.
Turning to `N#CCCc1cc2c3c(c(OC[C@@]45CCCN4C[C@H](F)C5)nc2c(F)c1-c1cc(O)cc2ccccc12)NC(=O)CN3C1C2CNC1C2` (single isomer, unassigned) [Example 10b], the IC50 on KRAS G12V is ≤ 100 nM; at KRAS G12D [1] it was 1000 to 5000 nM; at KRAS G12D [2], ≤ 100 nM.
On to `C[C@@H](CN(C)C)Oc1nc2c(F)c(-c3cc(O)cc4ccccc34)c(CCC#N)cc2c2c1NC(=O)CN2C1C2CNC1C2` (single isomer, unassigned) [Example 11c], for which the IC50 at KRAS G12V is ≤ 100 nM; on KRAS G12D [1], 100 to 1000 nM; at KRAS G12D [2] it was ≤ 100 nM.
Take `CN1CCC[C@H]1COc1nc2c(F)c(-c3cc(O)cc4ccccc34)c(CCC#N)cc2c2c1CCCN2C1C2CNC1C2` (single isomer, unassigned) [Example 12b]: the values for the IC50 on KRAS G12V, on KRAS G12D [1] and at KRAS G12D [2] were ≤ 100 nM, 100 to 1000 nM and ≤ 100 nM, respectively.
With `N#CCCc1cc2c3c(cnc2c(F)c1-c1cc(O)cc2ccccc12)N(CCC1CCNCC1)C(=O)CN3C1C2CNC1C2` (single isomer, unassigned) [Example 18a, 3-(1-((endo)-2-Azabicyclo[2.1.1]hexan-5-yl)-7-fluoro-8-(3-hydroxynaphthalen-1-yl)-3-oxo-4-(2-(piperidin-4-yl)ethyl)-1,2,3,4-tetrahydropyrazino[2,3-c]quinolin-9-yl)propanenitrile], the figures for the IC50 on KRAS G12V and on KRAS G12D [2] were 100 to 1000 nM and ≤ 100 nM, respectively.
The corresponding values for `N#CCCc1cc2c3c(cnc2c(F)c1-c1cc(O)cc2ccccc12)N(CC(N)=O)C(=O)CN3C1C2CNC1C2` (single isomer, unassigned) [Example 19a, 2-(1-((endo)-2-Azabicyclo[2.1.1]hexan-5-yl)-9-(2-cyanoethyl)-7-fluoro-8-(3-hydroxynaphthalen-1-yl)-3-oxo-2,3-dihydropyrazino[2,3-c]quinolin-4(1H)-yl)acetamide] are 100 to 1000 nM and ≤ 100 nM.
The matching figures for `C[C@H](Oc1nc2c(F)c(-c3cccc(Cl)c3Cl)c(CCC#N)cc2c2c1c(=O)c(N1CCCC1=O)cn2[C@H]1[C@H]2CN[C@@H]1C2)[C@@H]1CCCN1C` (single isomer, unassigned) [Example 25]: ≤ 100 nM and ≤ 100 nM.
On to `Cc1cc2c(nc(O[C@@H](C)[C@@H]3CCCN3C)c3c(=O)c(Nc4cnn(C)c4)cn([C@H]4[C@H]5CN[C@@H]4C5)c32)c(F)c1-c1cccc2c1C(C#N)CCC2` (single isomer, unassigned) [Example 26a], for which the IC50 at KRAS G12V and on KRAS G12D [2] was ≤ 100 nM each time.
